Earlier results as cited in patent EP3878534A1, “EXTRACTION AND BACK-EXTRACTION OF HYDROPHOBIC COMPOUNDS USING DEEP EUTECTIC SOLVENT WITH TUNEABLE HYDROPHOBICITY” (Wageningen Universiteit, priority 2020, dated 2021).

Assays:
[1] = octanol/water, individual compound

| Compound | Log Poct (Pub Chem) [1] | pKa |
| --- | --- | --- |
| CC1CCC(C(C)C)C(O)C1 (racemic) [DL-Menthol, 2-isopropyl-5-methylcyclohexanol] | 3.20 |  |
| CCCCCC(=O)O [Hexanoic acid] | 1.92 | 4.88 |
| CCCCCCCC(=O)O [Octanoic acid] | 3.05 |  |
